Data taken from US20020132276A1, “FACS method for detecton of GPIIb/IIIa inhibitor dependent activators in plasma samples” (priority 1999, published 2002).
“Also recorded” adds a separate entry of the source.

Key:
platelet CD62 [1] = assay: DDPASFCA: flow cytometric detection of platelet CD62 in plasma samples with and without GPIIb/IIIa antagonist (Example 1 procedure); assay type: cell-based, human; parameters: key to Delta Med F12: median PE fluorescence with antagonist minus without antagonist
Protocol: 50 μL of citrated plasma from a patient eliciting a thrombocytopenic response during treatment with Compound A was added to Costar Serocluster® 96 well V-bottom microtiter plates (#3897). GPIIb/IIIa antagonist or vehicle was added (2 μL of 5μM compound A, final concentration 200 nM) was added, followed by sufficient PRP or PRP diluted into PPP to give a final platelet number of 1×10^6/well (typically 2 μL PRP). Reactions were incubated without shaking for 120 minutes. After this time, 15 μL of phycoerythrin conjugated anti-CD62 (anti-CD62-PE, Bectin Dickinson) was added. After 30 minutes the samples were diluted with 130 μL flow buffer (FB) consisting of 10 mM HEPES, 5 mM Kcl, 168 mM NaCl, 1 mM MgCl2. Samples were then transferred to 12×75 mm polystyrene and analyzed on a FACScan (Bectin Dickinson). PE fluorescence was read on FL2. Platelets were identified by their characteristic forward and side light scatter. Data from 10,000 events was obtained per sample and analyzed using Bectin Dickinson CellQuest software. The effects of GPIIb/IIIa antagonists on CD62 expression are expressed as the difference in median PE fluorescence for reactions in the presence of GPIIb/IIIa antagonist and CD62 median PE fluorescence in the absence of a GPIIb/IIIa antagonist.
The procedure was the same as in Example 1 (with modifications outlined in that example) except that where samples were limiting, only 35-40 μL of plasma was used.
Plasma from a patient who developed a thrombocytopenic episode while under therapy with Compound A was analyzed for the presence of DDPASs that might not be of immunoglobulin nature. Plasma from this previously thrombocytopenic patient (taken 17 months after the thrombocytopenia) as well as normal human plasma (negative control) and plasma from a subject known to contain DDPAS (positive control) were processed to remove immunoglobulins by passage through 1 mL protein A Hitrap® columns (Pharmacia, Inc.). The immunoglobulin-depleted plasma was free of IgG as assessed by an IgGl-specific ELISA and negative for the presence of GPIIb/IIIa antagonist-dependent anti-platelet antibodies as assessed by the DDAB ELISA assay. Plasma samples were then tested in the DDPASFCA as described in Example 1. There was no statistical difference between results for plasma samples containing immunoglobulin and those not containing immunoglobulin, Table 1.
The detection of a positive DDPAS titer in the presence of a donor plasma was assessed with dilutions of the DDPASFCA-positive plasma DPC38 into the DDPASFCA-negative plasma DPC50 using platelets from DPC50 as follows: Varying volume amounts of control plasma (DPC50), not containing DDPASs, were mixed with a the DDPAS-positive test plasma (total volume 50 μL). 1×10^6 platelets (PRP) was added. Samples were treated as in Example 1 with and without added Compound A. In the concentration range employed, DDPASs could be quantitatively measured in the test plasma. […] Thus, the signal intensity in the DDPASFCA was dose-dependent with respect to the plasma concentration for the DDPASFCA-positive subject DPC38. In contrast DDPASs were undetectable in the control plasma.
(§1) The development of DDPASs in the plasma of a patient who received Compound A and developed thrombocytopenia was analyzed using the procedure of Example 1. DDPASFCA was not determined for patient #304 prior to taking Compound A. The patient experienced thrombocytopenia after 3 days of administration of Compound A. DDPASs were subsequently detected in this patient's plasma on day 22 post-administration of Compound A and were also detected 17 months later (FIG. 2). DPC38 was used as a positive control. DPC3 was used as a negative control. […] In a prospective study, a patient with such pre-existing DDPASs could be excluded from the study, possibly preventing the clinically significant thrombocytopenic episode.

[2] = Thrombocytopenia in a patient who received Compound A; assay type: in vivo, human; conditions: patient #304
Protocol: as §1

platelet CD62 [3] = assay: DDPASFCA in alternative microtiter plates (Costar Serocluster #3897 versus #3898); assay type: cell-based, human; conditions: Compound A 200 nM
Protocol: ADP and DPC38 were used as sources of DDPASs. 2 μL of citrated PRP (DPC3) was added to either Costar Serocluster® 96 well V-bottom microtiterplates (#3897) or #3898 microtiter plates (Costar Serocluster®) (rated as “hydrophilic” in nature by the manufacturer). Platelets were then treated with and without Compound A (200 nM) with the indicated concentrations of ADP. Similarly, DDPAS positive PRP (DPC38) was added to wells of both types of plates and treated with and without Compound A (200 nM). Reactions were incubated without shaking for 120 minutes. After this time, 20 μL of phycoerythrin conjugated anti-CD62 (anti-CD62-PE, Bectin Dickinson) was added. After 30 minutes the samples were diluted with 150 μL flow buffer and bound anti-CD62-PE measured as described in Example 1.
Delta SC=Delta Fluorescence for Costar Serocluster microtiter plates
Delta H=Delta Fluorescence for H3898 microtiter plates

[4] = Neg. control plasma, IgG status +
[5] = Neg. control plasma, IgG status − (protein A-depleted)
[6] = Pos. control plasma, IgG status +
[7] = Pos. control plasma, IgG status − (protein A-depleted)
[8] = TCP plasma, IgG status − (protein A-depleted plasma)
[9] = platelet donor DPC38 (DDPAS positive PRP), ADP 0 uM
[10] = platelet donor DPC50 (DDPASFCA negative), ADP 0 uM

CCCCOC(=O)N[C@@H](CNC(=O)C[C@H]1CC(c2ccc(C(=N)N)cc2)=NO1)C(=O)O [Compound A, 2(S)-[(n-butoxycarbonyl)amino]-3-[[[3-[4-(aminoiminomethyl)phenyl]isoxazolin-5(R)-yl]methylcarbonyl]amino]propionic acid]
+ compound Med F12 (platelet CD62 [1]; DPC38 0 ul, DPC50 50 ul): 12 | Delta Med F12 (platelet CD62 [1]; DPC38 0 ul, DPC50 50 ul): −8 | + compound Med F12 (platelet CD62 [1]; DPC38 8 ul, DPC50 42 ul): 64 | Delta Med F12 (platelet CD62 [1]; DPC38 8 ul, DPC50 42 ul): 20 | + compound Med F12 (platelet CD62 [1]; DPC38 10 ul, DPC50 40 ul): 73 | Delta Med F12 (platelet CD62 [1]; DPC38 10 ul, DPC50 40 ul): 17 | + compound Med F12 (platelet CD62 [1]; DPC38 12 ul, DPC50 38 ul): 88 | Delta Med F12 (platelet CD62 [1]; DPC38 12 ul, DPC50 38 ul): 17 | + compound Med F12 (platelet CD62 [1]; DPC38 17 ul, DPC50 33 ul): 135 | Delta Med F12 (platelet CD62 [1]; DPC38 17 ul, DPC50 33 ul): 21 | + compound Med F12 (platelet CD62 [1]; DPC38 25 ul, DPC50 25 ul): 271 | Delta Med F12 (platelet CD62 [1]; DPC38 25 ul, DPC50 25 ul): 79 | Delta Med F12 (platelet CD62 [1]; DPC38 50 ul, DPC50 0 ul): 304 | + compound Med F12 (platelet CD62 [1]; DPC38 50 ul, DPC50 0 ul, DPC50 platelets): 670 | Delta (median PE fluorescence with minus without compound A) (platelet CD62 [1]; [4]): −2 +/− 2 | FL2 compound A (median PE fluorescence) (platelet CD62 [1]; [4]): 16 +/− 1 | Delta (median PE fluorescence with minus without compound A) (platelet CD62 [1]; [5]): −44 +/− 15 | FL2 compound A (median PE fluorescence) (platelet CD62 [1]; [5]): 30 +/− 9 | Delta (median PE fluorescence with minus without compound A) (platelet CD62 [1]; [6]): 142 +/− 73 | FL2 compound A (median PE fluorescence) (platelet CD62 [1]; [6]): 315 +/− 27 | Delta (median PE fluorescence with minus without compound A) (platelet CD62 [1]; [7]): 122 +/− 52 | FL2 compound A (median PE fluorescence) (platelet CD62 [1]; [7]): 297 +/− 33 | Delta (median PE fluorescence with minus without compound A) (platelet CD62 [1]; TCP plasma, IgG status + (plasma)): 78 +/− 10 | FL2 compound A (median PE fluorescence) (platelet CD62 [1]; TCP plasma, IgG status + (plasma), Compound A 200 nM): 154 +/− 8 | Delta (median PE fluorescence with minus without compound A) (platelet CD62 [1]; [8]): 94 +/− 25 | FL2 compound A (median PE fluorescence) (platelet CD62 [1]; [8]): 156 +/− 20 | DDPASs in patient plasma (platelet CD62 [1]; patient #304, 17 months later): also detected | DDPASs in patient plasma (platelet CD62 [1]; patient #304, day 22 post-administration of Compound A): detected; also recorded: DDPASFCA positive | DDPASs in plasmas of DDAB ELISA positive patients (platelet CD62 [1]; pre-dose and study exit plasma, patients without clinically significant thrombocytopenia, except sample 099016): no substantial DDPASs | time to thrombocytopenia after start of administration [2]: 3 days | Delta CS (Delta Fluorescence for Costar Serocluster microtiter plates) (platelet CD62 [3]; platelet donor DPC3, ADP 0 uM): 24 | Delta H (Delta Fluorescence for H3898 microtiter plates) (platelet CD62 [3]; platelet donor DPC3, ADP 0 uM): 28 | Delta CS (Delta Fluorescence for Costar Serocluster microtiter plates) (platelet CD62 [3]; [9]): 190 | Delta H (Delta Fluorescence for H3898 microtiter plates) (platelet CD62 [3]; [9]): 338 | Delta CS (Delta Fluorescence for Costar Serocluster microtiter plates) (platelet CD62 [3]; [10]): 0 | Delta H (Delta Fluorescence for H3898 microtiter plates) (platelet CD62 [3]; [10]): −1
